The record followed here is paper PMC5741663, “Antimicrobial peptide capsids of de novo design” (Nature Communications, 2017).

Holding throughout (assay type): cell-based
One data set has as its system E. coli (K12). How it is done: (§1) MICs were determined by broth microdilution on different bacteria according to the Clinical and Laboratory Standards Institute. Typically, 100 μL of 0.5–1 × 10^6 CFU mL^–1 of each bacterium in Mueller Hinton media broth (Oxoid) were incubated in 96-well microtitre plates with 100 μL of serial two-fold dilutions of the peptides (from 100 to 0 μM) at 37 °C on a 3D orbital shaker. The absorbance was measured after peptide addition at 600 nm using a Victor 2 plate reader (Perkin-Elmer). MICs were defined as the lowest peptide concentration after 24 h at 37 °C.

In the next data set the test system is S. aureus (ATCC6538). The procedure: as §1
The test system of data set [1] is P. aeruginosa (ATCC27853). The procedure: as §1
Another data set has as its system B. subtilis (ATCC6633). How it is done:
as §1

The test system of another data set is E. faecalis (OG1X). How it is done: as §1
Another data set deals with S. enterica (ATCC700720). How it is done: MICs were determined by broth microdilution on different bacteria according to the Clinical and Laboratory Standards Institute. […] The absorbance was measured after peptide addition at 600 nm using a Victor 2 plate reader (Perkin-Elmer).
The next data set relates to Human erythrocytes. Kind of data set: Haemolysis assay. To be noted: 10% (vol/vol) human erythrocytes in PBS pH 7.2, 1 h at room temperature, absorbance 550 nm; triplicates. How it is done: Haemolysis was determined by incubating a 10% (vol/vol) suspension of human erythrocytes with peptides. Erythrocytes were rinsed four times in 10 mM phosphate buffer saline (PBS), pH 7.2, by repeated centrifugation and re-suspension (3 min at 3000×g). Erythrocytes were incubated at room temperature for 1 h in either deionised water (fully haemolysed control), PBS, or with peptide in PBS. After centrifugation at 10,000×g for 5 min, the supernatant was separated from the pellet, and the absorbance was measured at 550 nm. Absorbance of the suspension treated with deionised water defined complete haemolysis.

For data set [2], the system named is K. pneumoniae (NCTC 5055). How it is done: MICs were determined by broth microdilution on different bacteria according to the Clinical and Laboratory Standards Institute. […] The absorbance was measured after peptide addition at 600 nm using a Victor 2 plate reader (Perkin-Elmer). MICs were defined as the lowest peptide concentration after 24 h at 37 °C.
[3] abbreviates: S. enterica (ATCC700720), Mueller Hinton broth, 0.5–1 × 10^6 CFU mL–1, 24 h at 37 °C, absorbance 600 nm, total peptide concentration, triplicates.

Converted amounts (≈) assume the structure as drawn. Like-named read-outs stand apart in the source and are kept apart here. Marks after values point to notes of the source that are not given here. Starred links: 1 amine or outer side, 2 acyl side, 3 side chain; linkers in the order of their positions; H or OH if unused. Positions of bridges follow the written chain, without caps; N, C: chain ends. Non-standard residues stand in square brackets, D forms with d. Residues, ends and D or L forms follow the SMILES beside them. Chains are numbered I, II in the order given. *: point of attachment. X1 = CC(=O)N[C@@H](CCCCN[*:3])C(=O)NCCC(=O)N[C@@H](CCCCN[*:2])C(=O)NCCC(=O)N[C@@H](CCCCN[*:1])C(N)=O; X2 = CC[C@H](C)CCCCC(=O)*; Orn = NCCC[C@H](N)C(=O)O; Dab = NCC[C@H](N)C(=O)O; βAla = NCCC(=O)O

As for `CCCCCCCCCC(=O)N[C@@H](Cc1c[nH]c2ccccc12)C(=O)N[C@H](CC(N)=O)C(=O)N[C@@H](CC(=O)O)C(=O)N[C@@H]1C(=O)NCC(=O)N[C@@H](CCCN)C(=O)N[C@@H](CC(=O)O)C(=O)N[C@H](C)C(=O)N[C@@H](CC(=O)O)C(=O)NCC(=O)N[C@H](CO)C(=O)N[C@@H]([C@H](C)CC(=O)O)C(=O)N[C@@H](CC(=O)c2ccccc2N)C(=O)O[C@@H]1C` [Daptomycin], the Minimum inhibitory concentrations with E. coli (K12) (K12, 24 h) is given as more than 100 µM; in the data set with S. aureus (ATCC6538) (ATCC6538, 24 h), less than 8 µM; in data set [1] (ATCC27853, 24 h) it was more than 100 µM; with B. subtilis (ATCC6633) (ATCC6633, 24 h), less than 8 µM; in the data set with E. faecalis (OG1X) (OG1X, 24 h), more than 100 µM; in the data set on S. enterica (ATCC700720) (setting [3]), more than 50 µM. Further, the “LC50, median (50%) cell death compared to untreated cells” value in the data set on Human erythrocytes was >250^d µM.

Regarding `CC(C)C[C@@H]1NC(=O)[C@H](CCCN)NC(=O)[C@H](C(C)C)NC(=O)[C@@H]2CCCN2C(=O)[C@@H](Cc2ccccc2)NC(=O)[C@H](CC(C)C)NC(=O)[C@H](CCCN)NC(=O)[C@H](C(C)C)NC(=O)[C@@H]2CCCN2C(=O)[C@@H](Cc2ccccc2)NC1=O` [Gramicidin S] (cyclo(V[Orn]L[dF]PV[Orn]L[dF]P)), the Minimum inhibitory concentrations in the data set with E. coli (K12) (K12, 24 h) is less than 20 µM; in the data set on S. aureus (ATCC6538) (ATCC6538, 24 h), less than 20 µM; in data set [1] (ATCC27853, 24 h) it was more than 40 µM; with B. subtilis (ATCC6633) (ATCC6633, 24 h), more than 40 µM; in the data set on S. enterica (ATCC700720) (setting [3]), less than 10 µM. Moreover, in the data set on Human erythrocytes, the “LC50, median (50%) cell death compared to untreated cells” value is more than 20 µM.

For `CC[C@H](C)CCCCC(=O)N[C@@H](CCN)C(=O)N[C@H](C(=O)N[C@@H](CCN)C(=O)N[C@H]1CCNC(=O)[C@H]([C@@H](C)O)NC(=O)[C@H](CCN)NC(=O)[C@H](CCN)NC(=O)[C@H](CC(C)C)NC(=O)[C@@H](Cc2ccccc2)NC(=O)[C@H](CCN)NC1=O)[C@@H](C)O` [Polymyxin B] (X2-[Dab]T[Dab][Dab][Dab][dF]L[Dab][Dab]T; lactam 4-C (inferred); N-terminus assumed), the Minimum inhibitory concentrations in data set [2] (K. pneumoniae (NCTC 5055), Mueller Hinton broth, 0.5–1 × 10^6 CFU mL–1, 24 h at 37 °C, absorbance 600 nm, total peptide concentration, triplicates) is less than 1 µM; in the data set with E. coli (K12) (E. coli (K12), Mueller Hinton broth, 0.5–1 × 10^6 CFU mL–1, 24 h at 37 °C, absorbance 600 nm, total peptide concentration, triplicates), less than 1 µM; in the data set on S. aureus (ATCC6538) (S. aureus (ATCC6538), Mueller Hinton broth, 0.5–1 × 10^6 CFU mL–1, 24 h at 37 °C, absorbance 600 nm, total peptide concentration, triplicates) it was less than 50 µM; in data set [1] (P. aeruginosa (ATCC27853), Mueller Hinton broth, 0.5–1 × 10^6 CFU mL–1, 24 h at 37 °C, absorbance 600 nm, total peptide concentration, triplicates) it was less than 1 µM; with B. subtilis (ATCC6633) (B. subtilis (ATCC6633), Mueller Hinton broth, 0.5–1 × 10^6 CFU mL–1, 24 h at 37 °C, absorbance 600 nm, total peptide concentration, triplicates) it was 1.5 µM (≈ 1.81 µg/mL); in the data set on E. faecalis (OG1X) (E. faecalis (OG1X), Mueller Hinton broth, 0.5–1 × 10^6 CFU mL–1, 24 h at 37 °C, absorbance 600 nm, total peptide concentration, triplicates), more than 100 µM. In addition, in the data set on S. enterica (ATCC700720) (setting [3]), the Minimum inhibitory concentrations is reported as less than 1 µM.

For the compound “I: H-KIAKLKQKIQKLKAKIAKLKQ[βAla][βAla] / II: H-KIAKLKQKIQKLKAKIAKLKQ[βAla][βAla] / III: H-KIAKLKQKIQKLKAKIAKLKQ[βAla][βAla] (linker I:C-II:C-III:C via X1) [C 3 (+) strand]”, the Minimum inhibitory concentrations is on record as more than 12 µM in data set [2] (NCTC 5055, 24 h); 1.5 µM in the data set with E. coli (K12) (K12, 24 h); 50 µM in the data set on S. aureus (ATCC6538) (ATCC6538, 24 h); 3 µM in data set [1] (ATCC27853, 24 h); 1.5 µM with B. subtilis (ATCC6633) (ATCC6633, 24 h); 50 µM with E. faecalis (OG1X) (OG1X, 24 h). Also, the Minimum inhibitory concentrations with S. enterica (ATCC700720) (ATCC700720, 24 h) was 3 µM.
